{"source": "patent US10113150B2", "about": "“Engineered cardiac tissues and methods of using them” (InvivoSciences, Inc., priority 2011, dated 2018)", "key": {"[1]": {"tested_on": "cardiac fibroblasts / myofibroblasts (mFBs) in EHTs", "test": "Elimination of puromycin-sensitive fibroblasts in EHTs", "assay_type": "cell-based, human", "parameters": "effect on mFBs: dose or concentration left out as unconfirmed", "excerpt": "We fabricated EHTs using CMs derived from mouse ES cells (Cor.AT, Axiogenesis) that express a puromycin resistance-GFP reporter gene fusion driven by a cardiac-specific (αMHC) promoter. These Cor.AT CMs (1.75×10^6) were co-cultured with cardiac fibroblasts (FBs) in a 1:1 ratio (See Asnes, C. F., et al., Reconstitution of the Frank-Starling mechanism in engineered heart tissues. Biophys J, 2006. 91(5): p. 1800-10) for developing a coherently contracting EHT. The EHTs were compressed by the FBs from a loose (6×6×3.5 mm^3) hydrogel into a compacted (˜3×2×0.5 mm^3) coherently contracting tissue in 5-7 days. […] The remodeling capacity of FBs was needed to fabricate compressed 3D tissues that can generate cardiac contraction synchronously. Upon achieving synchronous contraction, the cardiac twitch force was measured using the Palpator. […] We expected that application of a similar protocol to fabricate EHTs with iPSC-derived CMs should produce similar cardiac contractility since individual CMs derived from human ES cells, iPSCs, and native rat hearts produced equivalent degrees of cardiac contractility. Our results showing similar results for human ES cells is below.\nAn increasing density of cardiomyocytes (CMs) in the EHT constructs promoted intercellular contacts to form a synchronously contracting EHT while myofibroblasts (mFBs) remodeled and compressed the constructs. However, an overgrowth of mFBs limited survival of CMs. By regulating the mFB proliferation, cardiac contractility of EHTs without mFBs was maintained at least 10-50% longer than those with mFBs. […] The Cor.AT CMs (1.75×10^6) were co-cultured with mFBs in a 5:1 ratio using previously published method and developed a coherently beating EHT. The EHTs with mFBs were compressed from a loose (6×6×3.5 mm^3) hydrogel into a compacted (˜3×2×0.5 mm^3) tissue in 5-7 days (FIG. 15B). Varying numbers of mFBs were mixed with CMs (e.g., 0.1:1, 0.5:1 up to 1:1) to fabricate EHTs. […]"}, "[2]": {"tested_on": "engineered heart tissues (EHTs)", "test": "EHT contractility assay (cardiac twitch force, Palpator)", "quoted_text": "EHTs were fabricated with 1.75-2×10^6 cardiomyocytes/mL using MC-8™ system (InvivoSciences, LLC). The cardiomyocytes were obtained from neonatal rats and guinea pigs, or embryonic mice or chicken. Viable and spontaneously twitching EHTs were generally obtained by day 10 after fabrication. The EHTs were electrically stimulated (60 mV, 1 Hz) during mechanical testing. The mechanical properties of EHTs using the Palpator™ device (InvivoSciences, LLC). This automated device positions a force probe directly above the center of each well (FIG. 7A-i) and moves it vertically in two (or more) steps (FIG. 7A-ii, -iii) to stretch twice the EHT to 3.7% and 7.7% longitudinally. Cardiac twitch (systolic) force and resting (diastolic) force were measured during each step for 30 and 60 s. […] The peak rate at which the cardiac twitch force changes (FIG. 7C) also indicated the contractility (FIG. 7D) of the EHT much like the dP/dtmax of left ventricles measured by pressure catheters.\nTo validate the ability of our assay system to assess cardiotoxicity, we profiled the effects of anti-cancer agents (doxorubicin and daunorubicin) and beta-adrenoceptor agonist (isoproterenol), which are known to cause cardiotoxicity in clinical and experimental applications. […] After a 3-day incubation with doxorubicin (20 nM, 200 nM, or 1 μM) the EHTs were measured again and their viability was determined."}, "[3]": {"tested_on": "mitochondrial membrane potential of EHTs", "test": "Mitochondrial membrane potential (MMP) of EHTs by TMRE fluorescence", "assay_type": "cell-based, rat", "excerpt": "The bottoms of the 8-well chambers were sealed with glass coverslips so that EHT cells could be observed using various optical instruments including microscopes and fluorescence plate readers in real time or after fixations. […] Mitochondria produce ATP via the electrochemical/osmotic gradient (˜180 mV) generated and maintained by the electron transport chain. Therefore, highly charged mitochondria produce ATP to support cardiac contractions.\nUsing a fluorescence plate reader (Synergy™ HT, BioTek U.S., Winooski, V T), we simultaneously measured TMRE's fluorescent signal (543 nm excitation/605±16 nm emission) and EHT contractions to determine the coupling between MMP and cardiac contractility. After a short (15-min) administration of 900 μM DNP (2,4-dinitrophenol), a potent uncoupler of MMP (FIG. 7F), to the EHTs MMP was reduced and cardiac contraction stopped (FIG. 7E).\nDrug-induced cardiotoxicity often damages mitochondrial metabolic activity. We have developed additional assays for quantifying the mitochondrial membrane potential (MMP) of EHTs using the cationic potential metric dye tetramethylrhodamine ethyl ester (TMRE), and we are also assessing EHT viability using 3-(4,5-Dimethylthiazol-2-yl)-2,5-diphenyltetrazolium (MTT). An automated microplate reader was used to measure fluorescence or optical absorbance of these dyes. With these assays, we successfully screened for a small molecule that modulates cellular and tissue contractility without altering MMP and viability of cells (details in Lam, V. and T. Wakatsuki, Hydrogel Tissue Construct-Based High-Content Compound Screening. Journal of Biomolecular Screening, 2011. 16(1): p. 120-128.). Four test compounds were assayed: Rho kinase inhibitor (H1152), cytochalasin D (CD), 2,4-dinitrophenol (DNP), and rotenone (ROT). […] Assays to assess mitochondrial activity and metabolic parameters such as ATP concentrations, O2 consumption and free radical production have been measured using similar techniques, see e.g. Lam, V. and T. Wakatsuki, Hydrogel Tissue Construct-Based High-Content Compound Screening. […]"}, "[4]": {"conditions": "900 μM, short (15-min) administration to EHTs"}}}
{"compound": "COc1ccc(C[C@H](N)C(=O)N[C@H]2[C@@H](O)[C@H](n3cnc4c(N(C)C)ncnc43)O[C@@H]2CO)cc1", "note": "[puromycin]", "values": [{"measurement": "effect on mFBs", "setting": "[1]", "result": "eliminated"}, {"measurement": "effect on puromycin sensitive FBs", "setting": "[1]; 5 μM, after compaction, EHTs with Cor.AT CMs", "result": "eliminated or their viability reduced"}, {"measurement": "effect on mFB in the EHTs", "setting": "[1]; 10 μM, Cor.AT myocytes with human cardiac myofibroblasts", "result": "eliminated"}]}
{"compound": "O=[N+]([O-])c1ccc(O)c([N+](=O)[O-])c1", "note": "[DNP, 2,4-dinitrophenol]", "values": [{"measurement": "cardiac twitch force", "setting": "[2]; 450 μM", "result": "not reduced significantly"}, {"measurement": "cardiac contraction", "setting": "[2]; [4]", "result": "stopped"}, {"measurement": "twitch force", "setting": "[2]; increasing concentrations, FIG. 7E", "result": "reduced"}, {"measurement": "MMP (mitochondrial membrane potential)", "setting": "[3]; 450 μM", "result": "attenuated"}, {"measurement": "MMP (mitochondrial membrane potential)", "setting": "[3]; [4]", "result": "reduced"}, {"measurement": "EC50", "setting": "[3]; rat EHT, FIG. 14, read-out: EC50 of MMP dissipation", "result": 340, "unit": "µM"}]}
